Laboratory results taken from patent US9567586B2, “EpCAM aptamer for detection of cancer stem cells” (DEAKIN UNIVERSITY, priority 2012, dated 2017).
Where two headings read alike, the source gives them in different places.

How the values were obtained:
[1] = molecular target: T1, native EpCAM expressed on the cell surface (Homo sapiens, UniProt P16422); test: Binding affinities of EpCAM aptamers by flow cytometry; conditions: read-out: KD (±SEM)
T1 construct: host or cells: T47D, MCF7, MDA-MB-231, HT-29 (EpCAM-positive); U118MG (EpCAM-negative control)
T1 sequence (P16422 24-314): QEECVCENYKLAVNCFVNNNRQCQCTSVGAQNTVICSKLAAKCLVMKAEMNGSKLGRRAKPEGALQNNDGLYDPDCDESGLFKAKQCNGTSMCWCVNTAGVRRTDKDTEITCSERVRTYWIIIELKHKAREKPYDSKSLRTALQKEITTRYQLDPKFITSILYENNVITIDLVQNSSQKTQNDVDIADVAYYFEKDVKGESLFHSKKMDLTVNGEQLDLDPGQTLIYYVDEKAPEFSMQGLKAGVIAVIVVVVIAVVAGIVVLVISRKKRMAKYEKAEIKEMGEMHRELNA
Experimental: (§1) Cells were harvested at 80% confluence with trypsin digestion and resuspended in washing buffer (DPBS with 5 mM MgCl2) and enumerated. Following centrifugation (1000×g for 5 min), the cell pellet was resuspended in assay buffer (DPBS supplemented with 5 mM MgCl2, 0.1 mg/ml tRNA, 0.1 mg/ml salmon sperm DNA, 0.2% [w/v] sodium azide, and 5% FCS) and diluted to 1×10^6/mL. The blocking step was carried out at 4′C. The binding of the aptamers was carried out at 37′C for 30 min or 4′C for 1 h, with the final concentration of magnesium chloride being 2.5 mM in all binding assays.
(§2) The equilibrium dissociation constant (K′d) of successful 2′-fluoropyrimidine RNA aptamer species to native EpCAM expressed on the cell surface was determined using flow cytometry with EpCAM-positive and -negative cell lines and a negative control (2-O-methyl-pyrimidine) aptamer (5′-DY647-mGCmGACUmGmGUUmACCCmGmGUCmGdT-3′) (SEQ ID NO:13). Kato III or U118MG cells (5×10^5) were first incubated with assay buffer followed by two washes with binding buffer prior to incubation with serial concentrations (approximately 10-fold above and below the apparent K′d) of FITC-labelled aptamer in a 100 μL assay buffer for 1 h on ice. The cells were washed three times, resuspended in 150 μL assay buffer containing 2.5 mM MgCl2 and subjected to flow cytometric analyses. The FITC-labelled unselected library was used as another negative control. The mean fluorescence intensity (MFI) of the unselected library was subtracted from that of the aptamer-target cell to generate the MFI of specific binding. The K′d for each aptamer was determined by Scatchard analysis according to the equation: [Bound aptamer]/[aptamer]=−(1/KD)×[bound aptamer]+([T]tol/KD) where [T]tot represents the total target concentration. Design and Generation of EpCAM Aptamer-siRNA Chimera
(§3) The binding affinities of both aptamers have been characterised against all five cell lines used in this study by flow cytometry, and the results are shown in Table 1.

[2] = test system: native EpCAM expressed on the cell surface; test: as above; set-up: species or system human; conditions: U118MG cells (EpCAM negative); read-out: KD (±SEM)
Experimental: as §1, §2, §3

| Substance | Kd ([1]; HT29 cells) [nM] | Kd ([1]; MCF7 cells) [nM] | Kd ([1]; MDA-MB-231 cells) [nM] | Kd ([1]; T47D cells) [nM] | Kd [2] [nM] |
| --- | --- | --- | --- | --- | --- |
| 5′-ACGUAUCCCUUUUCGCGUA-3′ (RNA aptamer, fluorescent dye conjugate used, modifications not given here, further chemistry not given here) [compound 23] | 37 ± 23.6 | 63.7 ± 40.4 | 86.7 ± 68.5 | 41.2 ± 29.2 | > 1000 |
| 5′-DY647-mGCmGACUmGmGUUmACCCmGmGUCmGdT-3′ (GCGACUGGUUACCCGGUCGN; 5' DY647, 2'-O-methyl, 3' dT, further chemistry not given here) [Control] | 837 ± 265 | > 1000 | > 1000 | > 1000 | > 1000 |
